The values below come from patent US9840481B2, “Allosteric modulators of nicotinic acetylcholine receptors” (MERCK SHARP & DOHME CORP., priority 2016, dated 2017).

The target in the experiment is T1, human α7 nAChR stably expressed in a HEK cell line (with human RIC-3) (Homo sapiens, UniProt P36544).
T1 construct: PrecisION hnAChR α7/RIC-3
Description: Automated patch-clamp electrophysiology functional assay (Assay A), IonFlux HT, whole-cell population patch. The experiment is classed as cell-based. The method, then: The α7 nAChR positive allosteric modulator (PAM) activity of the present compounds may be tested using assays known in the art. The α7 nAChR PAMs described herein have activities in an automated patch-clamp electrophysiology functional assay as described in the examples. The assay was performed using the IonFlux HT in a whole-cell, population patch configuration. See Golden et al. Assay Drug Dev. Technol. (2011) 9:608-619. The compounds were assessed for their ability to modulate the function of the human α7 nAChR stably expressed in a HEK cell line both in the presence, and in the absence of the natural α7 agonist acetylcholine. By performing a series of such measurements at different concentrations, the effective concentration of the α7 nAChR PAMs (EC50) was determined. See Spencer et al. Assay Drug Dev. Technol. (2012) 10:313-324.
Direct activation of α7 (agonism), and potentiation of 5 acetylcholine-evoked α7 currents was determined as follows:
Automated Patch-Clamp Electrophysiology Functional Assay (Assay A)
Automated patch-clamp electrophysiology was performed using the IonFlux HT (Fluxion Biosciences Inc., San Francisco, Calif.) in the whole-cell, population patch configuration. Test compounds were assessed for their ability to modulate the function of the α7 nicotinic acetylcholine receptor both in the presence, and in the absence of the natural α7 agonist acetylcholine. A HEK cell line stably expressing both human RIC-3 and human α7 (PrecisION hnAChR α7/RIC-3, Eurofins Pharma, St. Charles, Mo.) was cultured in 175 cm^2 triple-layer tissue culture flasks to no more than 90% confluency in DMEM/F-12 growth media supplemented with 10% heat-inactivated fetal bovine serum, 1% non-essential amino acids, 0.625 μg/mL Puromycin, and 400 μg/mL Geneticin. Immediately prior to assay, cells were detached by first aspirating growth media, rinsing with Dulbecco's phosphate buffered saline, and then adding 10 mL of Accutase (Innovative Cell Technologies, San Diego, Calif.) to the flask and then incubating at 37° C. for 5 minutes. Detached cells were then recovered by the addition of 40 mL of CHO-serum-free media supplemented with 25 mM HEPES, and rocked gently in a 50 mL conical tube for 20 minutes prior to patch-clamp assay. After recovery, cells were pelleted by centrifugation at 1,000 RPM for 1 minute in a compact bench top centrifuge; recovery media was aspirated and cells were resuspended in external recording solution (150 mM NaCl, 5 mM KCl, 2 mM CaCl2, 1 mM MgCl2, 10 mM HEPES, 12 mM dextrose) to a density of 5.0×10^6 cells/mL. The cell suspension was added to the cell inlet wells on an IonFlux HT population patch plate which had previously been rinsed and primed with deionized H2O. Test compounds were serially diluted in DMSO and then resuspended to the final test concentration in external recording solution, with, or without […] acetylcholine added to the external recording solution; test compounds were then transferred to the IonFlux HT population patch plate. Internal recording solution (110 mM TrisPO4, 28 mM TrisBase, 0.1 mM CaCl2, 2 mM MgCl2, 11 mM EGTA, 4 mM MgATP) was added to the internal recording solution inlet wells on the IonFlux HT patch plate previously loaded with cells and test compounds, and the plate loaded into the IonFlux HT instrument. A protocol was executed on the IonFlux HT to trap the cells, break into the cells, and establish the whole-cell recording configuration; cells were voltage-clamped at a holding potential of −60 mV for the duration of the experiment, all experiments were conducted at room temperature, and the IonFlux HT injection pressure was 8 psi for solution applications. Upon establishing the whole-cell configuration, external recording solution was perfused into the recording chambers for 120 seconds and then 40 μM acetylcholine was applied for 1 second and immediately washed off with external recording solution for 60 seconds. […]

The mark [1] stands for this setting: automated patch-clamp electrophysiology functional assay (Assay A), potency class by EC50, read-out: α7 nAChR Potency.
Setting [2] is: electrophysiology EC50, HEK cells expressing human α7/RIC-3, 40 μM acetylcholine, holding potential −60 mV, room temperature, read-out: α7 nAChR EC50.

Read-outs that look alike come from different tables or passages of the source.

T1 sequence (P36544 23-502): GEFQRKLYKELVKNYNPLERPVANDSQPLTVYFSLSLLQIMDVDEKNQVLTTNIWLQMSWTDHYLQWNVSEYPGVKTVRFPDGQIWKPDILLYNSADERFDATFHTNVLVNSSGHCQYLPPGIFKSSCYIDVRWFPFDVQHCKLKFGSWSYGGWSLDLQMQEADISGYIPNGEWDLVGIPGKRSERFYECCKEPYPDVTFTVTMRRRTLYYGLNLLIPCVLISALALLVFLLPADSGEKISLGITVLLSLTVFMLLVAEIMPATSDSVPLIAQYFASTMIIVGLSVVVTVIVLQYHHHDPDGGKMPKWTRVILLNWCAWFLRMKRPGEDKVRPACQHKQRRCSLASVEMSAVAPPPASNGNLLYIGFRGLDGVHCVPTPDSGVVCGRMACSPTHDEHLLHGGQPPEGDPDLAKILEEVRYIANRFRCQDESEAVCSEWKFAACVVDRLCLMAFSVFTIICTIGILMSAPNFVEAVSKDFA

For the compound `NS(=O)(=O)c1ccc([C@@H]2C[C@H]2c2nc(-c3cccc(F)c3)cs2)cc1` [Example 14, 4-{(1R,2R)-2-[4-(3-Fluorophenyl)-1,3-thiazol-2-yl]cyclopropyl}benzenesulfonamide], the EC50 reads like this: under setting [1], 100 to 500 nM; under setting [2], 200 nM.
For the compound `CC1(C)[C@@H](c2ccc(S(N)(=O)=O)cc2)[C@@H]1c1noc(-c2c(F)cc(F)cc2F)n1` [Example H3], the EC50 reads like this: under setting [1], 100 to 500 nM; under setting [2], 130 nM.
The corresponding values for `CC1(C)[C@@H](c2ccc(S(N)(=O)=O)cc2)[C@@H]1c1nc(C2CCCC2)co1` [Example K17] are 100 to 500 nM and 130 nM.
For the compound `NS(=O)(=O)c1ccc([C@@H]2C[C@H]2c2nc(C3CCCC3)co2)cc1` [Example K18], the EC50 under setting [1] was 100 to 500 nM.
On to `CC1(C)[C@@H](c2ccc(S(N)(=O)=O)cc2)[C@@H]1c1nnc(-c2c(F)cccc2F)o1` [Example G5], for which the EC50 is 500 to 5000 nM under setting [1] and 1300 nM under setting [2].
For the compound `CC1(C)C(c2nc(-c3ccccc3)no2)C1c1ccc(S(N)(=O)=O)cc1F` (single isomer, unassigned) [Example M7], under setting [1], the EC50 lay in the range of 500 to 5000 nM.
On to `CC1(C)[C@H](c2ccc(S(N)(=O)=O)cc2)[C@H]1c1nc(C2CCCO2)no1` (stereo partly drawn) [Example B12], for which, under setting [1], the EC50 was in the range of 5000 to 50000 nM.
Regarding `CC1(C)[C@H](c2ccc(S(N)(=O)=O)cc2)[C@H]1c1nnc(-c2ccc(F)cc2F)s1` [Example 5, 4-{(1R,3R)-3-[5-(2,4-Difluorophenyl)-1,3,4-thiadiazol-2-yl]-2,2-dimethylcyclopropyl}benzenesulfonamide], the EC50 was 100 to 500 nM under setting [1] and 180 nM under setting [2].
As for `CC(C)c1noc([C@@H]2[C@@H](c3ccc(S(N)(=O)=O)cc3)C2(C)C)n1` [Example B1], the EC50 was 500 to 5000 nM under setting [1] and 1500 nM under setting [2].
For the compound `CC1(C)[C@@H](c2ccc(S(N)(=O)=O)cc2)[C@@H]1c1nc(C2CCC2)no1` [Example D7], under setting [1], the EC50 lay within 100 to 500 nM.
With `NS(=O)(=O)c1ccc([C@H]2C[C@@H]2c2nc(-c3ccccc3)no2)cc1` [Example A5], the EC50 is 5000 to 50000 nM under setting [1] and 7300 nM under setting [2].
Regarding `NS(=O)(=O)c1ccc([C@H]2C[C@@H]2c2nc(-c3cncc(F)c3)no2)cc1` [Example B5], the EC50 under setting [1] fell in the range of 5000 to 50000 nM.
As to `Cc1ncccc1-c1noc([C@H]2C[C@@H]2c2ccc(S(N)(=O)=O)cc2)n1` [Example B6], the EC50 runs as follows: under setting [1], 5000 to 50000 nM; under setting [2], 7700 nM.
In the case of `NS(=O)(=O)c1ccc([C@@H]2C[C@H]2c2nc(C3(c4ccccc4)CC3)no2)cc1` [Example D23], the EC50 by setting is: under setting [1], 500 to 5000 nM; under setting [2], 2100 nM.
For the compound `CC1(C)[C@@H](c2ccc(S(N)(=O)=O)cc2)[C@@H]1c1ncc(-c2ccccc2)s1` [Example 17, 4-[(1S,3S)-2,2-Dimethyl-3-(5-phenyl-1,3-thiazol-2-yl)cyclopropyl]benzenesulfonamide], the EC50 was 500 to 5000 nM under setting [1] and 2000 nM under setting [2].
Turning to `CC1(C)[C@@H](c2ccc(S(N)(=O)=O)cc2)[C@@H]1c1noc(C2CN(C(=O)C3CC3)C2)n1` [Example I23], under setting [1], the EC50 fell in the range of 500 to 5000 nM.
For `CC1(C)[C@@H](c2ccc(S(N)(=O)=O)cc2)[C@@H]1c1noc(C2CC2)n1` [Example I25], the EC50 is 500 to 5000 nM under setting [1] and 710 nM under setting [2].
`CC1(C)[C@H](c2ccc(S(N)(=O)=O)cc2)[C@H]1c1nnc(-c2ccccc2)[nH]1` [Example F5]: the EC50 under setting [1] fell in the range of 500 to 5000 nM and the EC50 under setting [2] turned out to be 1000 nM.
Turning to `Cn1ccc(-c2nc([C@H]3[C@H](c4ccc(S(N)(=O)=O)cc4)C3(C)C)no2)c1` [Example I10], the EC50 under setting [1] was 500 to 5000 nM.
For `Cc1noc([C@H]2[C@H](c3ccc(S(N)(=O)=O)cc3)C2(C)C)n1` [Example D13], the EC50 runs as follows: under setting [1], 5000 to 50000 nM; under setting [2], 6000 nM.
The corresponding values for `CC(C)c1noc([C@H]2[C@H](c3ccc(S(N)(=O)=O)cc3)C2(C)C)n1` [Example D5] are 100 to 500 nM and 420 nM.
The corresponding values for `NS(=O)(=O)c1ccc([C@@H]2[C@@H](c3ncc(C4CCCC4)o3)C2(F)F)cc1` [Example J11] are 500 to 5000 nM and 730 nM.
For the compound `CC1(C)[C@@H](c2ccc(S(N)(=O)=O)cc2)[C@@H]1c1noc(C2CCC(O)CC2)n1` (stereo partly drawn) [Example I29], the EC50 under setting [1] lay in the range of 5000 to 50000 nM and the EC50 under setting [2] stood at 6800 nM.
Regarding `CC1(C)[C@H](c2ccc(S(N)(=O)=O)cc2)[C@H]1c1cn(-c2ccccc2)nn1` [Example 12, 4-[(1R,3R)-2,2-Dimethyl-3-(1-phenyl-1H-1,2,3-triazol-4-yl)cyclopropyl]benzenesulfonamide], the EC50 under setting [1] was in the range of 500 to 5000 nM and the EC50 under setting [2] was 910 nM.
`CC1(C)[C@@H](c2ccc(S(N)(=O)=O)cc2)[C@@H]1c1noc(C2(c3cc(F)ccc3F)CCC2)n1` [Example I4]: the EC50 under setting [1] lay in the range of 100 to 500 nM and the EC50 under setting [2] was determined as 170 nM.
Turning to `CC1(C)[C@H](c2ccc(S(N)(=O)=O)cc2)[C@H]1c1nc(-c2ccc(F)cc2F)no1` [Example A7], the EC50 was 500 to 5000 nM under setting [1] and 1300 nM under setting [2].
With `Cc1ncccc1-c1noc([C@H]2[C@H](c3ccc(S(N)(=O)=O)cc3)C2(C)C)n1` [Example D15], the EC50 under setting [1] lay within 500 to 5000 nM.
For `Cc1nc([C@@H]2C[C@H]2c2ccc(S(N)(=O)=O)cc2)sc1-c1ccccc1` [Example 16, 4-[(1R,2R)-2-(4-Methyl-5-phenyl-1,3-thiazol-2-yl)cyclopropyl]benzenesulfonamide], the EC50 by setting is: under setting [1], no more than 100 nM; under setting [2], 98 nM.
For `CC1(C)[C@@H](c2ccc(S(N)(=O)=O)cc2)[C@@H]1c1nc(-c2cccnc2C(F)(F)F)no1` [Example D30], the EC50 under setting [1] fell in the range of 500 to 5000 nM and the EC50 under setting [2] was 1200 nM.
On to `CC1(C)[C@H](c2ccc(S(N)(=O)=O)cc2)[C@H]1c1nnc(-c2c(F)cccc2F)o1` [Example F1], for which the EC50 under setting [1] lay within 500 to 5000 nM.
As to `CC1(C)[C@H](c2ccc(S(N)(=O)=O)cc2)[C@H]1c1nc(C2CC2)c(C2CC2)o1` [Example 31, 4-[(1R,3R)-3-(4,5-Dicyclopropyl-1,3-oxazol-2-yl)-2,2-dimethylcyclopropyl]benzenesulfonamide], the EC50 is 500 to 5000 nM under setting [1] and 2400 nM under setting [2].
The corresponding values for `NS(=O)(=O)c1ccc([C@@H]2[C@@H](c3nc(C4CCC4)no3)C2(F)F)cc1` [Example B18] are 500 to 5000 nM and 1200 nM.
For the compound `CC(C)(C)c1cnc([C@@H]2C[C@H]2c2ccc(S(N)(=O)=O)cc2)o1` [Example K4], under setting [1], the EC50 is 500 to 5000 nM.
Turning to `NS(=O)(=O)c1ccc(C2C(c3nc(C4CCCC4)no3)C2(Cl)Cl)cc1` (racemic) [Example M5], the EC50 under setting [1] fell in the range of 100 to 500 nM.
`NS(=O)(=O)c1ccc([C@@H]2C[C@H]2c2nc(C3CCCC3)no2)cc1` [Example D21]: the EC50 is 100 to 500 nM under setting [1] and 130 nM under setting [2].
Take `CC1(C)[C@@H](c2ccc(S(N)(=O)=O)cc2)[C@@H]1c1noc(-c2cccc(F)c2)n1` [Example H5]: the EC50 under setting [1] lay within 500 to 5000 nM and the EC50 under setting [2] is 1500 nM.
Turning to `CC1(C)[C@H](c2ccc(S(N)(=O)=O)cc2)[C@H]1c1nc(CC2CC2)no1` [Example B10], the EC50 by setting is: under setting [1], 500 to 5000 nM; under setting [2], 3000 nM.
Take `NS(=O)(=O)c1ccc([C@@H]2[C@@H](c3nsc(N4CCCCC4)n3)C2(F)F)cc1` [Example L12]: the EC50 under setting [1] lay in the range of 100 to 500 nM.
In the case of `NS(=O)(=O)c1ccc([C@@H]2C[C@H]2c2noc(C3(C(F)(F)F)CC3)n2)cc1` [Example I35], the EC50 is 500 to 5000 nM under setting [1] and 690 nM under setting [2].
